Data reported in the Kinase Knowledgebase extract (Sharma et al. 2016).

How the values were obtained:
EGFR (human) [1] = biological target: EGFR (human) (UniProt P00533); details: h1975
EGFR (human) [2] = biological target: EGFR (human) (UniProt P00533); details: hcc827
[3] = biological target: EGFR (human), P00533 [L858R]
EGFR (human) [4] = biological target: EGFR (human) (UniProt P00533); details: a549
[5] = biological target: EGFR (human), P00533 [WT]
Chain of EGFR (human), P00533 [WT] (P00533 whole entry, looked up): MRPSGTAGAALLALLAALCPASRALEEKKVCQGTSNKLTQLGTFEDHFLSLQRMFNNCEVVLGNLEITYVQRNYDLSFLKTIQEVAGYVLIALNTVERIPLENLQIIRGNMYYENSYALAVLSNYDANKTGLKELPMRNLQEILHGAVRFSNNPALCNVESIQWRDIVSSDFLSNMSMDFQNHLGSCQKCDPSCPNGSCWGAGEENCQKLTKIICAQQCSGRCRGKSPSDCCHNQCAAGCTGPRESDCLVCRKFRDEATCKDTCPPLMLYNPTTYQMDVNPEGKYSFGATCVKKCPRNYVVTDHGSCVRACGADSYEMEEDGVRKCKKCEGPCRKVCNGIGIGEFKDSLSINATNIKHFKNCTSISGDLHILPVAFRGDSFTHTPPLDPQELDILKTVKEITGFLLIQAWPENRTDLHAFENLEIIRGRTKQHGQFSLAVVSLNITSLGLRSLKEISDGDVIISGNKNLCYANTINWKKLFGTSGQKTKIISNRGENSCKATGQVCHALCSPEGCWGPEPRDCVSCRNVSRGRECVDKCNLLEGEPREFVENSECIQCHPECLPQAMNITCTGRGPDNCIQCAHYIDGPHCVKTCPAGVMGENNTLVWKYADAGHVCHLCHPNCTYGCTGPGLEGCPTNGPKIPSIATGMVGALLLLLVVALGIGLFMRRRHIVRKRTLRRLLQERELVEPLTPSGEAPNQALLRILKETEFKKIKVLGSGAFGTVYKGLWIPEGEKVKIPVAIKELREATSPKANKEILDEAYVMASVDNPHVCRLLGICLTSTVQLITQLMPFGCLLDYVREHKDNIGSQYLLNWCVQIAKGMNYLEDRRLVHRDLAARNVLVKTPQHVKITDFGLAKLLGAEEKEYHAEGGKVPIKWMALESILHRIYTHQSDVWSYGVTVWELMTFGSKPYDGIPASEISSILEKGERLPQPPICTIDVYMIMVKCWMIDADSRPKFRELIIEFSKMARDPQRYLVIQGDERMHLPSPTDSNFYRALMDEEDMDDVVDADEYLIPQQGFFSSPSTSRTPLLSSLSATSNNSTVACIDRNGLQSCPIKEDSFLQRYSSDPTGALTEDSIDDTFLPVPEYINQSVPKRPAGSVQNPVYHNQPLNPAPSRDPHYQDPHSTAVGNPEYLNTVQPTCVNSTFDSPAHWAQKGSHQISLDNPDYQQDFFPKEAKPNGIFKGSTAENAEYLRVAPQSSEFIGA

Chain of EGFR (human) (P00533 whole entry, looked up): as above
Chain of EGFR (human), P00533 [L858R] (P00533 whole entry L858R, looked up): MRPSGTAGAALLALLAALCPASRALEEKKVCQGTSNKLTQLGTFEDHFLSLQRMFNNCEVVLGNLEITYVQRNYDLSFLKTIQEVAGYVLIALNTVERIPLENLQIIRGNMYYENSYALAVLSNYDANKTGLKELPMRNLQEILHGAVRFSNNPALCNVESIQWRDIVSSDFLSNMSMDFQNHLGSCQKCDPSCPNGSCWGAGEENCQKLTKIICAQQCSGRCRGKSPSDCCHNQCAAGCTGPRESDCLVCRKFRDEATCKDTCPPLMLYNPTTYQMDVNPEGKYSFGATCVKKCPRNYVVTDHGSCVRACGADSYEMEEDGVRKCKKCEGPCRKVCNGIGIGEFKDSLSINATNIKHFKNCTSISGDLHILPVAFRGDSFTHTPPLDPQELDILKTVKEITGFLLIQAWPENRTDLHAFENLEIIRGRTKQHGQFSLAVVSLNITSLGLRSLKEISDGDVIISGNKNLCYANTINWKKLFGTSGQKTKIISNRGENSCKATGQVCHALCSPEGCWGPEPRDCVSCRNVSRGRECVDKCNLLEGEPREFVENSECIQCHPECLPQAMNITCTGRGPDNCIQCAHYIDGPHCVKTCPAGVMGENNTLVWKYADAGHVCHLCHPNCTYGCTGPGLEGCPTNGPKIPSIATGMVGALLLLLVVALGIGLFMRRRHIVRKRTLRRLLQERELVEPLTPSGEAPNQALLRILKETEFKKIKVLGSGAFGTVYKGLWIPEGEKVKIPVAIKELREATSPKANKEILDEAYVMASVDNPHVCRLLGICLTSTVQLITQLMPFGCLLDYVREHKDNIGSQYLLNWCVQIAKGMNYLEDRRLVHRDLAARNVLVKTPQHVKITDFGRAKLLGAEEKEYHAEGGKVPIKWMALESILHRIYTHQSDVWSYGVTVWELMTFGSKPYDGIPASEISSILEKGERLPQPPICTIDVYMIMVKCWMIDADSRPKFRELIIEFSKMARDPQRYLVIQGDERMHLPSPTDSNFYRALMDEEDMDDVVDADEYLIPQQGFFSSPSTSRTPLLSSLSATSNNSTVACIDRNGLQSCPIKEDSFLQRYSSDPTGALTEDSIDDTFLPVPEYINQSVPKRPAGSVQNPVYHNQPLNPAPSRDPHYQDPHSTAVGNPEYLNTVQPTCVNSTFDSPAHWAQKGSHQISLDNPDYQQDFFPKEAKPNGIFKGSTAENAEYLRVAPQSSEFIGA

## COc1cc2c(Oc3ccc(NC(=O)C4=C(C)N(C)C(c5ccccc5)C4=O)cc3F)ccnc2cc1OCCCN1CCOCC1 (configuration not stated)
EGFR (human) [1]
  IC50: 1460 nM
EGFR (human) [2]
  IC50: 2510 nM
[3]
  IC50: > 16 µM
EGFR (human) [4]
  IC50: 1190 nM
[5]
  IC50: > 16 µM

## COc1cc2c(Oc3ccc(NS(=O)(=O)c4ccc(-c5cnn(C)c5)cc4)cc3F)ccnc2cc1OCCCN1CCN(C)CC1
EGFR (human) [1]
  IC50: > 10000 nM
EGFR (human) [4]
  IC50: > 10000 nM

## COc1cc2c(Oc3ccc(NC(=O)C4=C(C)N(C)C(c5ccccc5)C4=O)cc3F)ccnc2cc1OCCCN1CCN(C)CC1 (configuration not stated)
EGFR (human) [1]
  IC50: 1060 nM
EGFR (human) [2]
  IC50: 2580 nM
[3]
  IC50: > 16 µM
EGFR (human) [4]
  IC50: 1240 nM
[5]
  IC50: 7.67 µM
